Drawing on PubChem BioAssay (NCI), this text covers GI50 and TGI for eight compounds.

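Exposure lasted 48 hours, with cells grown in 96-well plates and compounds tested at five concentrations. GI50 is the concentration that inhibits growth by half. Definition used: TGI = concentration required for complete inhibition of growth.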

Holding throughout (assay): NCI anticancer screen, dose series, 48 h
Assay [1] has as its system U251 CNS.
Assay [2] deals with MDA-MB-231 breast.
The subject of assay [3] is M14 melanoma.
Assay [4] relates to CCRF-CEM leukemia.
Assay [5] concerns UO-31 renal.
Assay [6] concerns SNB-19 CNS.
Assay [7] has as its system A549 NSCLC.
Assay [8] deals with RXF 393 renal.
In assay [9] the test system is SR leukemia.
Assay [10] concerns COLO 205 colon.

`CS(=O)(=O)Nc1ccc(-c2ccc3c(NC(=O)C4CC4)n[nH]c3c2)cc1`: the GI50 in [1] was above 25 µM; in assay [2] it was above 25 µM; in [3], 24.9 µM; in assay [4], 24.2 µM; in [5] it was above 25 µM; in assay [6], above 25 µM. Besides, the GI50 in assay [7] is above 25 µM; in assay [8], above 17.7 µM; in assay [9] it was above 21.2 µM; in assay [10], above 25 µM. In addition, the TGI in [1], in assay [2], in assay [3], in [4], in assay [5] and in assay [6] was above 25 µM each time. The TGI in assay [7], in assay [8], in assay [9] and in assay [10] was above 25 µM throughout.
Regarding `COc1ccc(C2C(C#N)=C(N)OC3=C2CCCc2ccc(F)cc23)cc1OC` (centres undefined), the GI50 in assay [1] was 17 µM; in [2] it was 17.3 µM; in [3] it was 19.9 µM; in [5], 16.5 µM; in [6] it was 30.2 µM; in assay [7], 25.8 µM. The GI50 in assay [8] is 18.7 µM; in assay [9], above 100 µM; in assay [10], 38.5 µM. The TGI in assay [1] is 35.9 µM; in [2] it was 45.5 µM; in [3], 41.8 µM; in assay [4], 0.0686 µM; in [5], 31.8 µM; in assay [6], above 82.4 µM. Also, the TGI in [7] was above 69.6 µM; in assay [8], 45.7 µM; in assay [9], above 100 µM; in assay [10] it was above 95.8 µM.
Turning to `Cc1noc(C)c1-c1ccc2[nH]c(=O)n3c2c1OC[C@@H]3c1ccccn1`, the GI50 in assay [1] was 30.9 µM; in assay [2], 0.868 µM; in assay [3], 0.803 µM; in assay [4], 2.07 µM; in [5], 0.18 µM; in assay [6], 4.81 µM. Also, the GI50 in assay [7] was 2.92 µM; in [8] it was 1.26 µM; in assay [9], 0.267 µM; in assay [10], 0.433 µM. For the same compound, the TGI in assay [1], in assay [2], in assay [3], in assay [4], in [5] and in assay [6] was above 100 µM throughout. Also, the TGI in assay [7] is above 100 µM; in assay [8], above 25.3 µM; in assay [9] it was above 100 µM; in [10] it was above 100 µM.
As for `CN(C)CCNC(=O)Nc1c(C#N)[n+]([O-])c2cc(Cl)c(Cl)cc2[n+]1[O-]`, the GI50 was 14.5 µM in [1]; 19.9 µM in [2]; 21.9 µM in assay [3]; 6.88 µM in assay [4]; 45 µM in assay [5]; 27.8 µM in assay [6]. The GI50 in assay [7] is 34 µM; in [8], 47.9 µM; in assay [9], 13.4 µM; in assay [10], 16.1 µM. For the same compound, the TGI in [1] was above 100 µM; in assay [2], 56.9 µM; in assay [3], above 100 µM; in assay [4], above 100 µM; in [5] it was above 100 µM; in assay [6] it was above 100 µM. Also, the TGI in [7] was above 100 µM; in assay [8] it was above 100 µM; in assay [9] it was above 100 µM; in assay [10], 46.3 µM.
As to `CCCCCCNc1nc(NCCCCCC)c2[nH]c(NCCCCCC)nc2n1`, the GI50 was 2.18 µM in [1]; 5.09 µM in assay [2]; 14.1 µM in assay [3]; 4.95 µM in [4]; 14 µM in assay [5]; 15.5 µM in assay [6]. In addition, the GI50 in assay [7] is 1.58 µM; in assay [8], 4.23 µM; in assay [9], 0.582 µM; in [10], 1.32 µM. In addition, the TGI in assay [1] amounted to 8.98 µM; in assay [2] it was 19.3 µM; in assay [3] it was 27.9 µM; in [4] it was 35.6 µM; in [5], 35 µM; in assay [6] it was 29.5 µM. For the same compound, the TGI worked out at 14.8 µM in [7], 17.5 µM in assay [8], 3.43 µM in assay [9] and 2.76 µM in assay [10].
Turning to `Clc1ccc(OCc2nnc3n2N=C(c2ccc(Cl)cc2Cl)CS3)c(Cl)c1`, the GI50 in assay [1] was 18.7 µM; in assay [2], 14.9 µM; in assay [3], 22.7 µM; in [4] it was 22.3 µM; in [5] it was 18.2 µM; in assay [6], 34.3 µM. Moreover, the GI50 was 28.8 µM in [7], 4.08 µM in assay [8], 17.3 µM in assay [9] and 34.7 µM in assay [10]. Further, the TGI in assay [1] was 46.8 µM; in assay [2], 38.3 µM; in assay [3] it was 51 µM; in assay [4], 89.7 µM; in [5] it was 47.5 µM; in assay [6], above 100 µM. The TGI is 95.8 µM in [7], 25.4 µM in assay [8], 46.5 µM in assay [9] and above 100 µM in assay [10].
Consider `COc1ccc2c(-c3cc4ccccc4o3)cc(=O)oc2c1`, for which the TGI is above 96 µM in [1]; above 100 µM in [2]; above 100 µM in assay [3]; above 100 µM in [4]; 65.6 µM in assay [5]; above 100 µM in assay [6]. The TGI in assay [7] is above 100 µM; in assay [8], 53.5 µM; in assay [9], above 100 µM; in [10] it was above 100 µM.
As for `C[C@H]1CCC/C=C/[C@@H]2C[C@H](N)C[C@H]2[C@H](O)/C=C/C(=O)O1`, the GI50 in [1] is above 100 µM; in assay [2], above 100 µM; in assay [3] it was above 100 µM; in assay [4], 83.2 µM; in [5], above 100 µM; in [6], above 100 µM. Further, the GI50 in assay [7] is above 100 µM; in assay [8] it was above 100 µM; in [9], 74 µM; in [10] it was above 100 µM. Also, the TGI in assay [1], in [2], in assay [3], in assay [4], in [5] and in assay [6] was above 100 µM throughout. Besides, the TGI in [7], in [8], in assay [9] and in [10] was above 100 µM in each case.
